Laboratory results reported in patent US20230286970A1, “NOVEL OXADIAZOLE-BASED SELECTIVE HDAC6 INHIBITORS” (ITALFARMACO S.P.A., priority 2020, published 2023).
Like-named read-outs stand apart in the source and are kept apart here.

Legend:
[1] = 4 h
Experimental: (§2) In order to evaluate the stability to circulating enzymes, test compounds were incubated in human and rat plasma at 37° C. in a thermostated oscillating bath. Each test compound was incubated at μM concentration (50 μM when the samples were analysed by UV/HPLC, 1 or 2 μM when the samples were analysed by LC-MS/MS) for 0, 15, 30 minutes and 1, 2 and 4 hours. The reaction was stopped placing samples on ice bath and adding acidified acetonitrile. After centrifugation (10 minutes at 14000 rpm) an aliquot of the supernatant was diluted with water, filtered with 0.45 μm regenerated cellulose syringe filters and injected in HPLC-UV or in LC-MS/MS. The percentage of the remaining amount at the various incubation times with respect to the initial amount were calculated. The half-life in plasma was also calculated.

[2] = system: α-tubulin acetylation in 697 cell line; test: In vitro α-tubulin acetylation in 697 cell line (ELISA); type: cell-based; settings: 16 hours, read-out: fold increase @ 1 uM TubAc (ratio of acetylated tubulin and total tubulin towards control)
How it was run: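 B 697 cells in RPMI 10% FCS were treated for 16 h at 37 °C with compound at 1000, 333, 111 or 37 nM. Lysate (0.3 μg protein) was coated and probed by ELISA for acetylated and total α-tubulin, read at 450 nm. The acetylated/total ratio is given as fold over untreated control.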

[3] = 90 min, pH 7.4
Experimental: (§3) Test compounds were incubated in rat and human liver S9 fraction at 37° C. up to 90 minutes in order to evaluate their stability to Phase I metabolism by hepatic enzymes. Each test compound was incubated at μM concentration (50 μM when the samples were analysed by UV/HPLC, 1 or 2 μM when the samples were analysed by LC-MS/MS) with S9 fraction (protein content 2 mg/m L) in 100 mM phosphate buffer (pH 7.4), 3.3 mM MgCl2 and 1.3 mM NADPH for 0, 10, 30, 60 and 90 minutes at 37° C. in a thermostated oscillating bath. The reaction was stopped placing samples on ice bath and adding acidified acetonitrile. After centrifugation (10 minutes at 14000 rpm) an aliquot of the supernatant was diluted with water, filtered with 0.45 μm regenerated cellulose syringe filters and injected in HPLC-UV or in LC-MS/MS. The percentage of the remaining amount at the various incubation times with respect to the initial amount were calculated.

[4] = target: recombinant human HDAC1 (Homo sapiens (Human), UniProt Q13547); test: Enzymatic screening, HDAC1 inhibition (fluorogenic FdL_G substrate); type: biochemical
How it was run: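 Recombinant human HDAC1 inhibition was measured fluorometrically using the FLUOR DE LYS-Green (FdL_G) substrate. Compounds at 8 doses (1% DMSO final) in Tris-HCl pH 8 buffer with NaCl, Tween-20 and glycerol were preincubated in triplicate with enzyme and 1 mg/mL BSA, then given substrate. Developer I plus 2 μM TSA was added, and fluorescence read after 25 minutes in the dark.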

[5] = 90 min, pH 7.4; remark: listed apart in the source
Experimental: as §3

[6] = target: recombinant human HDAC6 (Homo sapiens (Human), UniProt Q9UBN7); test: Enzymatic screening, HDAC6 inhibition (fluorogenic FdL_G substrate); type: biochemical
How it was run: (§1)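 Enzyme was preincubated with compound (8 doses, triplicate, 1% DMSO) in 25 mM Tris-HCl pH 8, 130 mM NaCl, 0.05% Tween-20, 10% glycerol, with BSA. A FLUOR DE LYS-Green substrate was then added, and fluorescence was read after developer plus 2 μM TSA.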

[7] = 4 h; remark: listed apart in the source
[8] = target: HDAC8 (Homo sapiens (Human), UniProt Q9BY41); test: Enzymatic screening, HDAC8 inhibition; type: biochemical
How it was run: as §1, with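 “BSA at 2 mg/mL (HDAC4, HDAC9) or 1 mg/mL (HDAC8, HDAC10).” for “BSA.”, “DE LYS, FLUOR DE” for “DE”, “LYS-Green or Boc-Lys(Tfa)-AMC” for “LYS-Green”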

[9] = target: HDAC9 (Homo sapiens (Human), UniProt Q9UKV0); test: Enzymatic screening, HDAC9 inhibition; type: biochemical
How it was run: as §1, with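 “BSA at 2 mg/mL (HDAC4, HDAC9) or 1 mg/mL (HDAC8, HDAC10).” for “BSA.”, “DE LYS, FLUOR DE” for “DE”, “LYS-Green or Boc-Lys(Tfa)-AMC” for “LYS-Green”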

[10] = target: HDAC5 (Homo sapiens (Human), UniProt Q9UQL6); test: Enzymatic screening, HDAC5 inhibition; type: biochemical
[11] = target: HDAC10 (Homo sapiens (Human), UniProt Q969S8); test: Enzymatic screening, HDAC10 inhibition; type: biochemical
How it was run: as §1, with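 “BSA at 2 mg/mL (HDAC4, HDAC9) or 1 mg/mL (HDAC8, HDAC10).” for “BSA.”, “DE LYS, FLUOR DE” for “DE”, “LYS-Green or Boc-Lys(Tfa)-AMC” for “LYS-Green”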

[12] = target: HDAC4 (Homo sapiens (Human), UniProt P56524); test: Enzymatic screening, HDAC4 inhibition; type: biochemical
How it was run: as §1, with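 “BSA at 2 mg/mL (HDAC4, HDAC9) or 1 mg/mL (HDAC8, HDAC10).” for “BSA.”, “DE LYS, FLUOR DE” for “DE”, “LYS-Green or Boc-Lys(Tfa)-AMC” for “LYS-Green”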

[13] = target: HDAC7 (Homo sapiens (Human), UniProt Q8WUI4); test: Enzymatic screening, HDAC7 inhibition; type: biochemical
[14] = target: HDAC2 (Homo sapiens (Human), UniProt Q92769); test: Enzymatic screening, HDAC2 inhibition; type: biochemical
[15] = target: HDAC11 (Homo sapiens (Human), UniProt Q96DB2); test: Enzymatic screening, HDAC11 inhibition; type: biochemical
[16] = target: HDAC3 (Homo sapiens (Human), UniProt O15379); test: Enzymatic screening, HDAC3 inhibition; type: biochemical
[17] = Stability to Phase I metabolism in rat S9 liver fraction; settings: after 90 minutes, 37° C.
Experimental: as §3

[18] = Stability in rat plasma; settings: after 4 hours, 37° C.
Experimental: as §2

[19] = Stability to Phase I metabolism in human S9 liver fraction; settings: after 90 minutes, 37° C.
Experimental: as §3

[20] = Stability in human plasma; settings: after 4 hours, 37° C.

Chain of HDAC8 (Q9BY41 whole entry): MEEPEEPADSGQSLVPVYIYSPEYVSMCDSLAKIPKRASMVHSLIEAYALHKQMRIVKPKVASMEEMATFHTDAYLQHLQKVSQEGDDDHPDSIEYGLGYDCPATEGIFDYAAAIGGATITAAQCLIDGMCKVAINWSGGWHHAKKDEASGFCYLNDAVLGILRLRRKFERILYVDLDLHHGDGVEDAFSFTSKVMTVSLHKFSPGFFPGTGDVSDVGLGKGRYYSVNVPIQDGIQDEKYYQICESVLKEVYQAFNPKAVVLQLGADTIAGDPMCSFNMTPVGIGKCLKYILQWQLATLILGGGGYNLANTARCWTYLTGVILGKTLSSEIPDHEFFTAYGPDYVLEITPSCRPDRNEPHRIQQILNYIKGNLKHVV
Chain of recombinant human HDAC6 (Q9UBN7 whole entry): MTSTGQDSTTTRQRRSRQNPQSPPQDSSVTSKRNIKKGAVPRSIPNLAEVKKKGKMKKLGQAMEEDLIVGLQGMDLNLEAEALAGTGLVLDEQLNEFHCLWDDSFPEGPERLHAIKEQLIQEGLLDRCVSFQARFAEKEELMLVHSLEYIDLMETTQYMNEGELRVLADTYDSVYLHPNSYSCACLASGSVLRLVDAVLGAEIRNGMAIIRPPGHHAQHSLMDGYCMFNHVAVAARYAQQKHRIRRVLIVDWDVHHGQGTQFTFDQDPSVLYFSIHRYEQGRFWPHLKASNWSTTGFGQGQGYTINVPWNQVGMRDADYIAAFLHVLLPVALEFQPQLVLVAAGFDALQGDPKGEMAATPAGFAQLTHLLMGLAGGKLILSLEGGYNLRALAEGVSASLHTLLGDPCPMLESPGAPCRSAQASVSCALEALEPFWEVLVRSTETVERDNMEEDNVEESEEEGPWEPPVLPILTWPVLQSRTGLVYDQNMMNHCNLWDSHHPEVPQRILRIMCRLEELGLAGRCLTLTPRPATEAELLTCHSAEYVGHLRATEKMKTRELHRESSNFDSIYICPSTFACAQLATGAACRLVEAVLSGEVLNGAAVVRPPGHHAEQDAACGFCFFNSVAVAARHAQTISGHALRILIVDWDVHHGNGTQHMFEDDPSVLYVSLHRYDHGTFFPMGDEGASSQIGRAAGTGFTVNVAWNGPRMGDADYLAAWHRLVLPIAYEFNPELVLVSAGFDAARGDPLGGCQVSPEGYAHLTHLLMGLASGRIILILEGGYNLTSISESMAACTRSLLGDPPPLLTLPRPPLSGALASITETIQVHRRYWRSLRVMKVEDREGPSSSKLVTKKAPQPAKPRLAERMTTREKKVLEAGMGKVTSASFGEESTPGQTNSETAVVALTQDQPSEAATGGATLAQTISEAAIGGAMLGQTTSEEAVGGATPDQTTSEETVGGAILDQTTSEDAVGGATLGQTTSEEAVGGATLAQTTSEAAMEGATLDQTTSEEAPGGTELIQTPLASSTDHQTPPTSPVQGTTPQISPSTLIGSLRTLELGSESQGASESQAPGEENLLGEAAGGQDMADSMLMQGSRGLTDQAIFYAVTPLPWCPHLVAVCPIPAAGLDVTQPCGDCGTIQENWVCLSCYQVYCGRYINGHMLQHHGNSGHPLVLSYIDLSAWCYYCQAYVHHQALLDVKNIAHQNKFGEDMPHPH
Chain of recombinant human HDAC1 (Q13547 whole entry): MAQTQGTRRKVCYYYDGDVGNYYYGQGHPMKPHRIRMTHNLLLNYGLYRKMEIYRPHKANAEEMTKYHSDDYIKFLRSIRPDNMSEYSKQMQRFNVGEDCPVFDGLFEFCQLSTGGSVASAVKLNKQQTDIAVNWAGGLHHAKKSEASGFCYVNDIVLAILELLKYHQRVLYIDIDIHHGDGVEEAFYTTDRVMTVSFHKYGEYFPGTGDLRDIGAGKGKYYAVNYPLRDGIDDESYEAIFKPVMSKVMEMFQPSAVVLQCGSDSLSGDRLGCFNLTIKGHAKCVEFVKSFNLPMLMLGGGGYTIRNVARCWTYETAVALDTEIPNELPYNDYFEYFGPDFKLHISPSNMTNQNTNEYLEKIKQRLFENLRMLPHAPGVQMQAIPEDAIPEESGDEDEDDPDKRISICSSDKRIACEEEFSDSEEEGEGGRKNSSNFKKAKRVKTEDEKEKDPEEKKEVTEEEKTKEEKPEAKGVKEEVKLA
Chain of HDAC5 (Q9UQL6 whole entry): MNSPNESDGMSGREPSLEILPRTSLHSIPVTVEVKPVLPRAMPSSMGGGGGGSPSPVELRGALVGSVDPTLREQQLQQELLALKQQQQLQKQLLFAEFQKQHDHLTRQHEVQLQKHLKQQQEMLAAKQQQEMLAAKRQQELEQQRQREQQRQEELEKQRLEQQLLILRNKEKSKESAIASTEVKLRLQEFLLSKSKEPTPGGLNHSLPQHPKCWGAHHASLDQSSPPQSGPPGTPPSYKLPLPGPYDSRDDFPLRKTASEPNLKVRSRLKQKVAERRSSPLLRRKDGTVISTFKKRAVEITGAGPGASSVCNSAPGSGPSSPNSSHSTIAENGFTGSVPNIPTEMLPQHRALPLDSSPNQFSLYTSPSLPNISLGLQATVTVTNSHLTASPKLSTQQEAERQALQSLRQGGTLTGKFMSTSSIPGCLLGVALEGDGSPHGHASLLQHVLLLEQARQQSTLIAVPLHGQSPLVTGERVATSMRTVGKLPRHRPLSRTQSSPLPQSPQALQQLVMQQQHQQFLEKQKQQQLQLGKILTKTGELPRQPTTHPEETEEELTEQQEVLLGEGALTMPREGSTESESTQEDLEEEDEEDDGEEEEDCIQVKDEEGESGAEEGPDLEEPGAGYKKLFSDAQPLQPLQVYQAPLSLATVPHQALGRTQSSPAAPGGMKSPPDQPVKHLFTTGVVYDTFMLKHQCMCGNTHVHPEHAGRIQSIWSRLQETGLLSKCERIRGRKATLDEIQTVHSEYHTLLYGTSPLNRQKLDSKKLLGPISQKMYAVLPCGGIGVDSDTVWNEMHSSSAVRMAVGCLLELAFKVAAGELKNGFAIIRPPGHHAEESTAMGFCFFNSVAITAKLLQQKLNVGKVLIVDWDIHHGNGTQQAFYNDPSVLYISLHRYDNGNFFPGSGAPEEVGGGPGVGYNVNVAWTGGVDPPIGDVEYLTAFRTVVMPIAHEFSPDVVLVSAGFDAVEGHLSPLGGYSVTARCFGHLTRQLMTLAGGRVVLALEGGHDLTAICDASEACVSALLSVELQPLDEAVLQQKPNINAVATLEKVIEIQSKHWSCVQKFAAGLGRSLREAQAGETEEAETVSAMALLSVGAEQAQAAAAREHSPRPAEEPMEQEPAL
Chain of HDAC10 (Q969S8 whole entry): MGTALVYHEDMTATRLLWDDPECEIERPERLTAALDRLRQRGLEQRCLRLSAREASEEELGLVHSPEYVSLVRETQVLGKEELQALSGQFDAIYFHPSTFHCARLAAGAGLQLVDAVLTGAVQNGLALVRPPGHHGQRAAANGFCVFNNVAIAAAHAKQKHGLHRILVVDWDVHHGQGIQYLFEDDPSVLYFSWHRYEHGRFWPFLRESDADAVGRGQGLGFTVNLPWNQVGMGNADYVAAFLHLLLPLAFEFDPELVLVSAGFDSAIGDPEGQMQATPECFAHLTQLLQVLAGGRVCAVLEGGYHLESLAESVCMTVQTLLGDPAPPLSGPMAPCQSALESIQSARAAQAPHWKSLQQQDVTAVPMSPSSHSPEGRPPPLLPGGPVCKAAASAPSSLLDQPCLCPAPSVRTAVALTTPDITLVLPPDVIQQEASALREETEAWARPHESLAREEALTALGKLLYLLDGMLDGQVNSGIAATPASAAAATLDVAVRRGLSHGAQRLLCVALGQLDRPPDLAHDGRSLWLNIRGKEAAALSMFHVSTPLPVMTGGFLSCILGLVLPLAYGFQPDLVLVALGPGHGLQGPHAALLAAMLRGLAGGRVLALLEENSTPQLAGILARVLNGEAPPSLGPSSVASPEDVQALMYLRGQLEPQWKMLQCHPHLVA
Chain of HDAC3 (O15379 whole entry): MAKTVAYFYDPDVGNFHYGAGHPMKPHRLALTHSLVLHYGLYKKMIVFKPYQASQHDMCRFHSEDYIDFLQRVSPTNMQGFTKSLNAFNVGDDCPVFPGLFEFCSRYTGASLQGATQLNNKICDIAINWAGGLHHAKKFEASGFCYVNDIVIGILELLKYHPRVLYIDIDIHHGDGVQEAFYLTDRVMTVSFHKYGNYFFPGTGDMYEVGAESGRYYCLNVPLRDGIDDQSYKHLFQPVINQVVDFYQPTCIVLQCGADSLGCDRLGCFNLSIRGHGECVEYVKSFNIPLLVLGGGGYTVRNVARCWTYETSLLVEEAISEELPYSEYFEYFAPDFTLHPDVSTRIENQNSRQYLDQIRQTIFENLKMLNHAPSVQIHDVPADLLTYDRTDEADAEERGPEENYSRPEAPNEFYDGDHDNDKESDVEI
Chain of HDAC3 (Q9Y618 395-489 partner): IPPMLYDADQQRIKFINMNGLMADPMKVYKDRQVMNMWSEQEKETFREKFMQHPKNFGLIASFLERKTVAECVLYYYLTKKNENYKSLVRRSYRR
Chain of HDAC2 (Q92769 whole entry): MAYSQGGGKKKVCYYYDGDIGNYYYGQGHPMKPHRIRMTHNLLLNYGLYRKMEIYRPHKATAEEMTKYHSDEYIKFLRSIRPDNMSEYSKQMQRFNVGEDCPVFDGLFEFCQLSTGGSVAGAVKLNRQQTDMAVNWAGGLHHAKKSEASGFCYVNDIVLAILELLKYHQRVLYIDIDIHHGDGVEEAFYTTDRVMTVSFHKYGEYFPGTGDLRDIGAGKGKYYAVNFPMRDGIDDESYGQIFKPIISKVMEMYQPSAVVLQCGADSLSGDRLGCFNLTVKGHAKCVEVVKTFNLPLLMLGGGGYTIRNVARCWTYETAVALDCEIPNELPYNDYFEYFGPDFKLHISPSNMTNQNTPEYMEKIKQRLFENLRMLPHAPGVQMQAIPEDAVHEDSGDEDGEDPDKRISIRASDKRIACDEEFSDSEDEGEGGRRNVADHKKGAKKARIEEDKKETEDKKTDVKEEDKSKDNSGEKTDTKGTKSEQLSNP

O=C1Nc2ccc(-c3cn(Cc4ccc(-c5nnc(C(F)F)o5)cc4)nn3)cc2C12CCNCC2 [compound 46, 5-(1-(4-(5-(difluoromethyl)-1,3,4-oxadiazol-2-yl)benzyl)-1H-1,2,3-triazol-4-yl)spiro[indoline-3,4′-piperidin]-2-one]
residual percentage in RAT PLASMA [1]: 72% | fold induction at 1 µM [2]: 5 | residual percentage in HUMAN S9 FRACTION [3]: 81% | IC50 [4]: > 200 µM | residual percentage in RAT S9 FRACTION [5]: 60% | IC50 [6]: 20 nM | residual percentage in HUMAN PLASMA [7]: 74%

O=C1Nc2ccc(-c3cn(Cc4ccc(-c5nnc(C(F)F)o5)cn4)nn3)cc2C12CCNCC2 [Compd. 19, 5-(1-((5-(5-(difluoromethyl)-1,3,4-oxadiazol-2-yl)pyridin-2-yl)methyl)-1H-1,2,3-triazol-4-yl)spiro[indoline-3,4′-piperidin]-2-one]
residual percentage in RAT PLASMA [1]: 83% | IC50 [8]: 572 µM | IC50 [9]: > 30 µM | IC50 [10]: > 30 µM | IC50 [11]: > 30 µM | fold induction at 1 µM [2]: 4 | IC50 [12]: > 30 µM | IC50 [13]: > 30 µM | residual percentage in HUMAN S9 FRACTION [3]: 96% | IC50 [14]: > 30 µM | IC50 [4]: > 200 µM | IC50 [15]: > 30 µM | IC50 [16]: > 30 µM | residual percentage in RAT S9 FRACTION [5]: 94% | IC50 [6]: 11 nM | residual percentage in HUMAN PLASMA [7]: 83%

Cn1c(N)nc2cc(-c3nnn(Cc4ccc(-c5nnc(C(F)F)o5)cc4)n3)ccc21 [compound 11, 5-(2-(4-(5-(difluoromethyl)-1,3,4-oxadiazol-2-yl)benzyl)-2H-tetrazol-5-yl)-1-methyl-1H-benzo[d]imidazol-2-amine]
residual percentage in RAT S9 FRACTION [17]: 90% | IC50 [8]: > 200 µM | IC50 [9]: > 30 µM | residual percentage in RAT PLASMA [18]: 86% | IC50 [10]: > 30 µM | IC50 [11]: > 30 µM | fold induction at 1 µM [2]: 18 | IC50 [12]: > 30 µM | IC50 [13]: > 30 µM | residual percentage in HUMAN S9 FRACTION [19]: 70% | IC50 [14]: > 30 µM | IC50 [4]: > 200 µM | IC50 [15]: > 30 µM | IC50 [16]: > 30 µM | residual percentage in HUMAN PLASMA [20]: 83% | IC50 [6]: 19 nM

O=C(Nc1cc(-c2nnn(Cc3ccc(-c4nnc(C(F)F)o4)cn3)n2)ccc1O)N1CCOCC1 [compound 2, N-(5-(2-((5-(5-(difluoromethyl)-1,3,4-oxadiazol-2-yl)pyridin-2-yl)methyl)-2H-tetrazol-5-yl)-2-hydroxyphenyl)morpholine-4-carboxamide]
residual percentage in RAT S9 FRACTION [17]: 61% | IC50 [8]: > 200 µM | IC50 [9]: > 30 µM | residual percentage in RAT PLASMA [18]: 90% | IC50 [10]: > 30 µM | IC50 [11]: > 30 µM | fold induction at 1 µM [2]: 26 | IC50 [12]: > 30 µM | IC50 [13]: > 30 µM | residual percentage in HUMAN S9 FRACTION [19]: 70% | IC50 [14]: > 30 µM | IC50 [4]: > 200 µM | IC50 [15]: > 30 µM | IC50 [16]: > 30 µM | residual percentage in HUMAN PLASMA [20]: 87% | IC50 [6]: 10 nM

Nc1nc2cc(-c3nnn(Cc4ccc(-c5nnc(C(F)F)o5)cn4)n3)ccc2o1 [compound 7, 5-(2-((5-(5-(difluoromethyl)-1,3,4-oxadiazol-2-yl)pyridin-2-yl)methyl)-2H-tetrazol-5-yl)benzo[d]oxazol-2-amine]
residual percentage in RAT S9 FRACTION [17]: 96% | IC50 [8]: > 200 µM | IC50 [9]: > 30 µM | residual percentage in RAT PLASMA [18]: 81% | IC50 [10]: > 30 µM | IC50 [11]: > 30 µM | fold induction at 1 µM [2]: 16 | IC50 [12]: > 30 µM | IC50 [13]: > 30 µM | residual percentage in HUMAN S9 FRACTION [19]: 92% | IC50 [14]: > 30 µM | IC50 [4]: > 200 µM | IC50 [15]: > 30 µM | IC50 [16]: > 30 µM | residual percentage in HUMAN PLASMA [20]: 76% | IC50 [6]: 13 nM
